Source: the supplement of paper PMC6045584
± gives the standard deviation of the averaged measurements.

Each test system was assayed with CC(=O)O[C@H]1C(=O)[C@@]2(C)[C@H]([C@H](OC(=O)c3ccccc3)[C@]3(O)C[C@H](OC(=O)[C@H](O)[C@@H](NC(=O)c4ccccc4)c4ccccc4)C(C)=C1C3(C)C)[C@]1(OC(C)=O)CO[C@@H]1C[C@@H]2O [PACLITAXEL] (assay: surviving fraction relative to DMSO-only wells; higher = less growth inhibition). Conditions: 1000 nM; exposure time: 5 days.
How it was run: (§1)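 Log-phase tumour cell lines, 250–500 cells per well in 384-well plates, received inhibitors at 0.5, 1, 5, 10, 50, 100, 500 and 1000 nM continuously for five days, starting 24 hours after seeding. Viability was quantified with CellTiter-Glo luminescence and normalised to the median of DMSO-only wells to give surviving fraction. Three screens were run per line, and a line stayed in only with replicate Pearson r >0.7 and median Z' >0.3.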

| Test System | surviving fraction |
| --- | --- |
| HCC202 BREAST | 0.327 ± 0.098 |
| SCC47 HEADNECK | 0.115 ± 0.015 |
| SG28 HEADNECK | 0.487 ± 0.043 |
| CME SYNOVIAL | 0.262 ± 0.02 |
| S68 BREAST | 0.122 ± 0.0061 |
| HS578T BREAST | 0.101 ± 0.01 |

The test systems below were run with CC(=O)NCC(=O)N1[C@@H]2CC[C@H]1c1ccc(Nc3ncc(C(F)(F)F)c(NC4CCC4)n3)cc12 in the same assay as above. Conditions: 0.5 nM; exposure time: 5 days.
How it was run: as §1

| Test System | surviving fraction |
| --- | --- |
| HCC202 BREAST | 1.54 ± 0.18 |
| SCC47 HEADNECK | 0.82 ± 0.0084 |
| SG28 HEADNECK | 1.06 ± 0.12 |
| CME SYNOVIAL | 1.13 ± 0.079 |
| S68 BREAST | 0.875 ± 0.16 |
| HS578T BREAST | 1 ± 0.016 |

Same assay, conditions: 1 nM; exposure time: 5 days

| Test System | surviving fraction |
| --- | --- |
| HCC202 BREAST | 1.09 ± 0.18 |
| SCC47 HEADNECK | 0.815 ± 0.033 |
| SG28 HEADNECK | 1.03 ± 0.036 |
| CME SYNOVIAL | 1.02 ± 0.17 |
| S68 BREAST | 0.86 ± 0.083 |
| HS578T BREAST | 0.962 ± 0.088 |

Same assay, conditions: 5 nM; exposure time: 5 days

| Test System | surviving fraction |
| --- | --- |
| HCC202 BREAST | 1.44 ± 0.13 |
| SCC47 HEADNECK | 1.01 ± 0.099 |
| SG28 HEADNECK | 0.972 ± 0.15 |
| CME SYNOVIAL | 0.992 ± 0.16 |
| S68 BREAST | 0.973 ± 0.18 |
| HS578T BREAST | 0.918 ± 0.23 |

Same assay, conditions: 10 nM; exposure time: 5 days

| Test System | surviving fraction |
| --- | --- |
| HCC202 BREAST | 1.5 ± 0.21 |
| SCC47 HEADNECK | 0.974 ± 0.1 |
| SG28 HEADNECK | 0.991 ± 0.13 |
| CME SYNOVIAL | 1.08 ± 0.066 |
| S68 BREAST | 0.946 ± 0.11 |
| HS578T BREAST | 0.879 ± 0.027 |

Same assay, conditions: 50 nM; exposure time: 5 days

| Test System | surviving fraction |
| --- | --- |
| HCC202 BREAST | 1.46 ± 0.16 |
| SCC47 HEADNECK | 1.01 ± 0.086 |
| SG28 HEADNECK | 0.949 ± 0.11 |
| CME SYNOVIAL | 0.915 ± 0.032 |
| S68 BREAST | 0.487 ± 0.057 |
| HS578T BREAST | 0.866 ± 0.085 |

Same assay, conditions: 100 nM; exposure time: 5 days

| Test System | surviving fraction |
| --- | --- |
| HCC202 BREAST | 1.32 ± 0.4 |
| SCC47 HEADNECK | 0.904 ± 0.058 |
| SG28 HEADNECK | 0.828 ± 0.015 |
| CME SYNOVIAL | 0.395 ± 0.036 |
| S68 BREAST | 0.472 ± 0.024 |
| HS578T BREAST | 0.721 ± 0.081 |

Same assay, conditions: 500 nM; exposure time: 5 days

| Test System | surviving fraction |
| --- | --- |
| HCC202 BREAST | 1.32 ± 0.15 |
| SCC47 HEADNECK | 0.542 ± 0.02 |
| SG28 HEADNECK | 0.682 ± 0.048 |
| CME SYNOVIAL | 0.255 ± 0.02 |
| S68 BREAST | 0.529 ± 0.081 |
| HS578T BREAST | 0.592 ± 0.071 |

Same assay, conditions: 1000 nM; exposure time: 5 days

| Test System | surviving fraction |
| --- | --- |
| HCC202 BREAST | 1.08 ± 0.26 |
| SCC47 HEADNECK | 0.521 ± 0.047 |
| SG28 HEADNECK | 0.601 ± 0.075 |
| CME SYNOVIAL | 0.33 ± 0.015 |
| S68 BREAST | 0.466 ± 0.13 |
| HS578T BREAST | 0.559 ± 0.11 |

The test systems below were run with CC(=O)c1c(C)c2cnc(Nc3ccc(N4CCNCC4)cn3)nc2n(C2CCCC2)c1=O in the same assay as above. Conditions: 0.5 nM; exposure time: 5 days.
How it was run: as §1

| Test System | surviving fraction |
| --- | --- |
| HCC202 BREAST | 0.959 ± 0.31 |
| SCC47 HEADNECK | 1.12 ± 0.087 |
| SG28 HEADNECK | 1.1 ± 0.069 |
| CME SYNOVIAL | 1.23 ± 0.18 |
| S68 BREAST | 0.75 ± 0.08 |
| HS578T BREAST | 0.985 ± 0.087 |

Same assay, conditions: 1 nM; exposure time: 5 days

| Test System | surviving fraction |
| --- | --- |
| HCC202 BREAST | 0.859 ± 0.088 |
| SCC47 HEADNECK | 1.05 ± 0.03 |
| SG28 HEADNECK | 1.1 ± 0.13 |
| CME SYNOVIAL | 1.27 ± 0.14 |
| S68 BREAST | 0.809 ± 0.025 |
| HS578T BREAST | 1.09 ± 0.068 |

Same assay, conditions: 5 nM; exposure time: 5 days

| Test System | surviving fraction |
| --- | --- |
| HCC202 BREAST | 1.01 ± 0.094 |
| SCC47 HEADNECK | 1.13 ± 0.072 |
| SG28 HEADNECK | 1.08 ± 0.15 |
| CME SYNOVIAL | 1.3 ± 0.18 |
| S68 BREAST | 1.13 ± 0.062 |
| HS578T BREAST | 1.02 ± 0.11 |

Same assay, conditions: 10 nM; exposure time: 5 days

| Test System | surviving fraction |
| --- | --- |
| HCC202 BREAST | 0.874 ± 0.16 |
| SCC47 HEADNECK | 1.1 ± 0.013 |
| SG28 HEADNECK | 0.955 ± 0.05 |
| CME SYNOVIAL | 1.18 ± 0.11 |
| S68 BREAST | 1.18 ± 0.033 |
| HS578T BREAST | 1.02 ± 0.048 |

Same assay, conditions: 50 nM; exposure time: 5 days

| Test System | surviving fraction |
| --- | --- |
| HCC202 BREAST | 0.863 ± 0.17 |
| SCC47 HEADNECK | 1.17 ± 0.065 |
| SG28 HEADNECK | 1.02 ± 0.16 |
| CME SYNOVIAL | 1.37 ± 0.062 |
| S68 BREAST | 1.01 ± 0.091 |
| HS578T BREAST | 1.11 ± 0.15 |

Same assay, conditions: 100 nM; exposure time: 5 days

| Test System | surviving fraction |
| --- | --- |
| HCC202 BREAST | 1 ± 0.25 |
| SCC47 HEADNECK | 1.1 ± 0.091 |
| SG28 HEADNECK | 1.02 ± 0.13 |
| CME SYNOVIAL | 1.23 ± 0.099 |
| S68 BREAST | 1.19 ± 0.2 |
| HS578T BREAST | 1.14 ± 0.19 |

Same assay, conditions: 500 nM; exposure time: 5 days

| Test System | surviving fraction |
| --- | --- |
| HCC202 BREAST | 1.19 ± 0.15 |
| SCC47 HEADNECK | 1.1 ± 0.035 |
| SG28 HEADNECK | 1 ± 0.058 |
| CME SYNOVIAL | 1.22 ± 0.066 |
| S68 BREAST | 0.744 ± 0.043 |
| HS578T BREAST | 0.949 ± 0.071 |

Same assay, conditions: 1000 nM; exposure time: 5 days

| Test System | surviving fraction |
| --- | --- |
| HCC202 BREAST | 0.982 ± 0.22 |
| SCC47 HEADNECK | 1.04 ± 0.048 |
| SG28 HEADNECK | 1.07 ± 0.051 |
| CME SYNOVIAL | 1.09 ± 0.14 |
| S68 BREAST | 0.79 ± 0.29 |
| HS578T BREAST | 1.13 ± 0.082 |

These test systems were tested with CC[C@@]1(O)C(=O)OCc2c1cc1n(c2=O)Cc2cc3ccccc3nc2-1 [CAMPTOTHECIN] in the same assay as above. Conditions: 0.5 nM; exposure time: 5 days.
How it was run: as §1

| Test System | surviving fraction |
| --- | --- |
| HCC202 BREAST | 1.05 ± 0.027 |
| SCC47 HEADNECK | 0.917 ± 0.019 |
| SG28 HEADNECK | 0.21 ± 0.068 |
| CME SYNOVIAL | 0.013 ± 0.0036 |
| S68 BREAST | 0.576 ± 0.087 |
| HS578T BREAST | 0.811 ± 0.14 |

Same assay, conditions: 1 nM; exposure time: 5 days

| Test System | surviving fraction |
| --- | --- |
| HCC202 BREAST | 0.866 ± 0.17 |
| SCC47 HEADNECK | 0.924 ± 0.086 |
| SG28 HEADNECK | 0.771 ± 0.12 |
| CME SYNOVIAL | 0.14 ± 0.019 |
| S68 BREAST | 0.544 ± 0.073 |
| HS578T BREAST | 0.778 ± 0.18 |

Same assay, conditions: 5 nM; exposure time: 5 days

| Test System | surviving fraction |
| --- | --- |
| HCC202 BREAST | 0.734 ± 0.082 |
| SCC47 HEADNECK | 0.959 ± 0.019 |
| SG28 HEADNECK | 0.579 ± 0.056 |
